Experimental data reported in publication PMC7617869, “Molecular glues that inhibit deubiquitylase activity and inflammatory signaling” (Nature Structural & Molecular Biology, 2025).
Values joined by “and” are separate entries in the source; they are usually repeats but may differ in a detail not shown here. Equal values may be shown once.

Tests used:
Assay type in all cases: cell-based, human
[1] = tested on: IFNAR1 cell surface levels in sgROSA MCF10A cells; experiment: MCF10A sgROSA IFNAR1 cell surface levels (FACS)
Method: (§1) To study the direct effect of BRISC DUB inhibitors, IFNAR1 surface levels were measured using flow cytometry (FACS) analysis. For this purpose, MCF10A WT and MCF10A BRCC45 KO cells expressing […]
(§2) BRCC45 WT or BRCC45 R137A were used. […]
(§3) minutes prior to the addition of 50 ng/mL of hIFN-Iα for various time points (45 minutes and 90 minutes).
(§4) After IFN treatment, cells were dissociated from plate using cell dissociation Buffer (ThermoFisher Scientific, #13150016) and were stained with LIVE/DEAD™ Fixable Violet Dead Cell Stain Kit, for 405 nm excitation (ThermoFisher Scientific, #L34963) for 30 minutes, as per the kit protocol. The cells were then washed using FACS buffer (DPBS, 1% BSA, 2 mM EDTA, 0.09% sodium azide) and transferred to 96-well round bottom plates. Resuspended cells were divided into three repeats for each sample, each was surface stained for 1 hour at 4 °C with: 1. Human IFN-alpha/beta R1 Antibody (R&D systems, #MAB245), 2. Mouse IgG1 Isotype Control (R&D systems, #MAB002), 3. FACS buffer (control cells).
(§5) Following incubation, cells were washed once with FACS buffer and were labelled for 30 minutes at 4 °C with either Biotin-SP-conjugated AffiniPure Donkey Anti-Mouse IgG (H+L) (Jackson Immunoresearch Laboratories) for samples 1 and 2 or with FACS buffer for sample 3. Cells were washed twice with FACS buffer and were labelled for 15 minutes at 4 °C with either R-Phycoerythrin-conjugated Streptavidin (Jackson Immunoresearch Laboratories) for samples 1 and 2 or with FACS buffer for sample 3. Cells were washed 3 times with FACS buffer and were analysed by FACS (MACSQuant, Miltenyi Biotec). For each sample from group 1 the Geo mean fluorescence intensity (MFI) of its isotype sample was reduced. IFNAR1 cell surface percentage was calculated by 100*(MFI

[2] = tested on: ISRE in THP-1 cells (TLR3 agonist polyI:C); experiment: THP-1 ISRE luciferase reporter, polyI:C stimulation; conditions: polyI:C 1 µg/mL, 4 μM compound, 16 h
Method: THP-1 in vitro experiments
THP-1-DualTM cells (InvivoGen), derived from a human monocytic cell line, isolated from a patient with acute monocytic leukaemia, were cultured as per manufacturer’s guidance. Cells were seeded at 1x10^6 cells/mL in RPMI1640 media containing 10% fetal bovine serum (FBS), 1% penicillin-streptomycin (PS) (Gibco Laboratories) with DMSO (0.1%) (control) or in media containing JMS-175- […]
ng/mL) (Merck Life Science), ODN 2216 (1 µM) (Miltenyi Biotec), or Poly:IC (1 µg/mL) (InvivoGen).
Tofacitinib (Cambridge Biosciences) at 0.4 µM was used for comparison against a known JAK inhibitor.
Cells were centrifuged at 300 g for 5 minutes. Supernatant was removed and subjected to simultaneous study of the NF -κB pathway, by monitoring the activity of secreted alkaline phosphatase reporter (SEAP), and the IRF pathway, by assessing the activity o f a secreted Lucia luciferase using QUANTI - Blue ™ Solution and QUANTI -Luc™ 4 Lucia/Gaussia (InvivoGen), respectively, as per manufacturer’s instructions. Pelleted cells were used for FACS analysis using IFNα/β R1 APC-conjugated antibody or isotype control (Biotechne, FAB245A and IC002A), or unstained staining procedure with and without Zombie GreenTM (Biolegend). Samples were analysed using CytoFlex LX (Beckman) (50,000 live cells per condition). Median fluorescence intensity for APC channel gated on single cell live cells was analysed and compared as a percentage to control (no stimulation condition). […]

[3] = tested on: IFNAR1 cell surface levels in MCF10A BRCC45 WT cells; experiment: MCF10A BRCC45 WT IFNAR1 cell surface levels (FACS); conditions: for IFNAR1 cell surface levels (Fig. 5g): BRCC45 KO + BRCC45 WT, IFN + compound, No IFN about 100; for IFNAR1 cell surface levels: BRCC45 WT cells, IFN 50 ng/ml, 5 μM, 90 min
Method: as §1, §2, §3, §4, §5

[4] = tested on: composite ISG score in SSc PBMCs; experiment: SSc PBMC composite ISG score (CXCL10, IFIT1, ISG15, MX1); conditions: for CXCL10 / IFIT1 / ISG15 / MX1: sheet Ext. 9e, SSc PBMCs, 20 values per compound (one per patient sample); for composite ISG score: unstimulated SSc PBMCs (n = 20), 2 µM, 16 h, relative to AP-5-145
Method: PBMCs in vitro experiments
Peripheral blood mononuclear cells (PBMCs) from healthy and SSc donors were separated using density gradient method (Leucosep™, Greiner Bio-One International) from EDTA anticoagulated peripheral blood; isolated cells were washed twice by PBS. PBMCs were then incubated in RPMI1640 […]
For healthy PBMCs, cells were stimulated with 20 ng/mL of IFN (+/- compounds or DMSO). For SSc PBMCs, cells were in basal conditions with no additional IFN stimulation. Cells were centrifuged at 300 g for 10 minutes. […]
RNA was extracted from cell pellets using TRIzol™ (ThermoFisher
Scientific, Waltham, MA) and processed using Quick-RNA Miniprep Kit (Zymo Research) as per the manufacturer’s instruction.
For Type I IFN signalling analysis, the human IFN I RT2 Profiler PCR Array (Qiagen, PAMM-016ZE) was performed on available RNA from healthy (n=3) and SSc (n=9) donors. RNA was converted to cDNA using RT2 First Strand Kit (Qiagen). Next, the cDNA was mixed with RT2 SYBR Green Mastermix (Qiagen, Venlo). Successful PCR performance was confirmed by assay tests for genomic DNA contamination, RNA sample quality, as well as single melt curve determination and <35 Ct for each gene, leading to validated gene expression of 67 genes. Relative expression for each gene was determined, firstly by ∆CT calculated using the geometric mean of 4 housekeeping genes (ACTB, GAPDH, HPRT1, RPLP0), followed by 2^(-∆CT), and expressed as fold change to control, according to manufacturer’s guidance. IFN2α-induced ISGs in healthy donors were determined using a Student’s t-test (two-tail distribution and equal variances) on the triplicate fold change in 2^(-ΔCT) values between […]
donors). Heatmaps were generated using the “pheatmap” function in R (v4.0.2) and RStudio (v1.3.1093) applying row scaling to standardise the expression data across samples (R core team 2020.
R Foundation for Statistical Computing). The IFN2α inducible genes determined in healthy donors […]
171-C. To account for Type I IFN signalling heterogeneity across samples, the mean 2^(-∆CT) for each […]
relative gene expression, illustrated as a fold change and visualised in log2. The Type I IFN signalling array data for the patient samples is included in Source Data Figure 6, Extended Data Fig. 9.

[5] = tested on: IFNAR1 cell surface levels in MCF10A BRCC45 R137A cells; experiment: MCF10A BRCC45 R137A IFNAR1 cell surface levels (FACS); conditions: for IFNAR1 cell surface levels (Fig. 5g): BRCC45 KO + BRCC45 R137A, IFN + compound, No IFN about 100; for IFNAR1 cell surface levels: BRCC45 R137A cells, IFN 50 ng/ml, 5 μM, 90 min
Method: as §1, §2, §3, §4, §5

[6] = IFN + compound, three replicates
[7] = sgROSA cells, IFN 50 ng/ml, 5 μM, 90 min

SMILES | IFNAR1 cell surface levels [1, 6] | ISRE luciferase signal in THP-1 supernatant [2] | IFNAR1 cell surface levels (Fig. 5g) [3] | CXCL10 [4] | IFIT1 [4] | ISG15 [4] | MX1 [4] | IFNAR1 cell surface levels (Fig. 5g) [5] | IFNAR1 cell surface levels [1, 7] | IFNAR1 cell surface levels [3] | composite ISG score [4] | IFNAR1 cell surface levels [5]
Cn1cc(NC(=O)c2c(Cl)cccc2Cl)c(C(=O)NC2CCN(C(=O)c3c(Cl)cccc3Cl)CC2)n1 [AP-5-145] | 50.5911 and 49.9799 and 55.4831 | 502.333 and 324.667 and 347.333 | 55.2385 and 54.5047 and 53.242 | 1.751 and 0.25 and 0.7382 and 0.8655 and 0.7967 and 0.4021 and 0.5617 and 1.22 and 0.6479 and 2.776 and 1.1866 and 0.5017 and 0.551 and 0.4363 and 0.9229 and 0.6553 and 1.25 and 0.7409 and 0.339 and 0.3688 | 0.6337 and 0.5474 and 0.8263 and 0.6524 and 0.6203 and 0.9706 and 0.5382 and 1.166 and 0.8191 and 0.9287 and 1.423 and 0.5364 and 0.8639 and 0.4363 and 0.9229 and 1.253 and 1.322 and 1.329 and 0.8934 and 0.7188 | 1.377 and 0.6237 and 1.266 and 0.7354 and 0.9639 and 0.9802 and 0.5935 and 1.766 and 0.659 and 0.6409 and 0.6943 and 0.6974 and 1.099 and 0.4464 and 1.007 and 1.459 and 1.622 and 0.4684 and 1.547 and 1.209 | 0.9424 and 0.9381 and 0.6518 and 0.8276 and 0.6072 and 1.137 and 0.7908 and 1.689 and 0.9753 and 0.9313 and 1.364 and 0.7737 and 0.8832 and 0.4676 and 0.7628 and 0.9541 and 1.254 and 0.9134 and 1.016 and 0.8618 | 55.396 and 54.5623 and 54.7013 |  |  |  | 
O=C(NC1C2CNCC21)c1nn(C(=O)c2c(Cl)cccc2Cl)cc1NC(=O)c1c(Cl)cccc1Cl (centres unmarked) [FX-171-C] | 42.0302 and 41.4187 and 41.1741 | 374 and 491 and 321 | 39.3476 and 40.435 and 39.71 | 1.514 and 0.251 and 1.066 and 0.167 and 0.5332 and 0.7533 and 1.612 and 0.6702 and 0.5368 and 1.6313 and 0.1436 and 0.6323 and 0.4166 and 0.1288 and 0.6936 and 0.646 and 0.6924 and 0.6022 and 0.5701 and 0.08999 | 0.2868 and 0.437 and 1.363 and 0.3735 and 0.4257 and 0.6696 and 0.8252 and 0.3503 and 0.5958 and 0.5382 and 1.388 and 0.256 and 0.9671 and 0.1288 and 0.6936 and 1.317 and 1.359 and 0.9945 and 0.8122 and 0.05751 | 0.9038 and 0.4123 and 1.522 and 0.5454 and 1.252 and 0.967 and 0.791 and 0.6842 and 0.9244 and 0.2949 and 0.1516 and 1.006 and 0.9237 and 0.1709 and 0.7851 and 1.799 and 0.9132 and 0.323 and 0.9506 and 0.1287 | 0.4428 and 0.9634 and 1.459 and 0.4711 and 0.7459 and 1.024 and 0.9419 and 0.919 and 0.9953 and 1.074 and 1.146 and 0.5685 and 0.9032 and 0.1777 and 0.6324 and 0.9421 and 1.363 and 0.7344 and 1.47 and 0.4028 | 49.6989 and 47.3367 and 48.4484 | reduction in IFNAR1 cell surface levels | reduction in IFNAR1 cell surface levels | reduced the composite ISG score | not reduced
O=C(NC1CCNCC1)c1nn(C(=O)c2c(Cl)cccc2Cl)cc1NC(=O)c1c(Cl)cccc1Cl [JMS-175-2] | 40.6849 and 39.7065 and 39.3396 | 486.333 and 543 and 491 | 38.381 and 37.8977 and 40.435 | 0.2536 and 3.414 and 0.2313 and 0.3588 and 1.2272 and 0.4193 and 1.168 and 0.8338 and 0.6055 and 1.239 and 0.3406 and 0.08106 and 0.000123 and 0.3625 and 0.05611 and 0.1808 and 1.381 and 0.5771 and 0.5421 and 0.1347 | 0.2366 and 1.382 and 0.8014 and 0.1818 and 0.6785 and 0.4193 and 1.168 and 0.7189 and 1.817 and 1.319 and 1.1 and 0.2301 and 0.1676 and 0.4861 and 0.2758 and 0.6203 and 0.8038 and 0.5004 and 0.169 and 0.3186 | 0.4563 and 0.8641 and 0.6274 and 0.4056 and 0.5557 and 0.616 and 1.197 and 0.8342 and 1.6 and 0.5253 and 1.319 and 0.4936 and 0.2916 and 0.7218 and 0.3961 and 0.8921 and 0.9105 and 0.5615 and 0.4313 and 0.6786 | 0.223 and 0.8929 and 1.04 and 0.5006 and 0.9521 and 0.6554 and 1.256 and 0.9444 and 1.592 and 1.073 and 1.238 and 0.494 and 0.2991 and 0.4305 and 0.1662 and 0.4949 and 1.066 and 0.6875 and 0.4778 and 0.5729 | 50.1158 and 49.56 and 49.1431 | reduction in IFNAR1 cell surface levels | reduction in IFNAR1 cell surface levels | reduced the composite ISG score | not reduced
